Laboratory results published in paper PMC7394005, “Assessing the Selectivity of FXR, LXRs, CAR, and RORγ Pharmaceutical Ligands With Reporter Cell Lines” (Frontiers in Pharmacology, 2020).
Like-named read-outs stand apart in the source and are kept apart here.

Key:
Format in all cases: cell-based
human CAR WT = biological target: T1, human CAR WT (Homo sapiens, UniProt Q14994); assay: HG5LN GAL4-CAR WT reporter cell line, inhibition of constitutive activity; settings: for IC50: inhibition of constitutive activity; for remaining activity at 10 µM: HG5LN, read-out: CAR WT % min act
T1 construct: CAR (M76-S348); expressed in transfected cells; host or cells: HG5LN (HeLa cells carrying the (GAL4RE)5-βGlob-Luc-SVNeo reporter)
T1 sequence (Q14994 76-348 isoform Q14994-2): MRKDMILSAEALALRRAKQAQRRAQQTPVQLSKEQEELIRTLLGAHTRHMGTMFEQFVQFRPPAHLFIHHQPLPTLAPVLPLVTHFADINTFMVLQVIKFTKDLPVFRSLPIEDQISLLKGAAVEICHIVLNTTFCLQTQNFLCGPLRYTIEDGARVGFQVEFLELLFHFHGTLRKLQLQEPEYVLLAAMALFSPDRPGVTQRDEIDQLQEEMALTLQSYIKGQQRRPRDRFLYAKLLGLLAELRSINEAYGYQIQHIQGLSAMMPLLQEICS
Description: (§1) To construct GAL4-NR chimeras, individual LBDs of human FXR (R193-Q486), LXRα (A187-E447), LXRβ (G199-E461), CAR (M76-S348), and RORγ (S97-K518) were amplified by PCR with primers containing XhoI and SacI restriction sites (FXR), XhoI and BamHI (LXRs, CAR, RORγ) and inserted in pSG5-GAL4(DBD)-puromycin plasmid. To construct GAL4-CAR (+ APYLT) (M76-S353), the five amino acids APYLT were inserted by overlap extension PCR between amino acids P270 and D271 of CAR.
(§2) To characterize the specificity of chemicals for human FXR, LXRα, LXRβ, CAR and RORγ, we established in a similar manner HG5LN FXR, LXRα, LXRβ, CAR WT, CAR (APYLT) and RORγ reporter cell lines. […] These cells were stably transfected by pSG5-GAL4 (DBD)-NRs (LBD)-puromycin plasmid and selected in presence of 0.5 µg/ml puromycin. […] From each HG5LN NR cells, 5 to 10 clones were chosen for their ligand inducibility of luciferase expression. […] The most inducible clones were expanded and rechecked for inducibility and aliquots were frozen at different passages. One clone per receptor was maintained in culture and used for ligand screening. HG5LN cells were cultured in Dulbecco’s modified Eagle’s medium (DMEM): Nutrient Mixture F-12 (DMEM/F-12) containing phenol red and 1 g/l glucose and supplemented with 5% fetal bovine serum, 100 units/ml of penicillin, 100 µg/ml of streptomycin and 1 mg/ml geneticin, in 5% CO2 humidified atmosphere at 37°C. Stably transfected cell lines derived from HG5LN cells were cultured in the same culture medium supplemented with 0.5 µg/ml puromycin.
(§3) Individual reporter cell lines were seeded at a density of 40,000 cells per well in 96-well white opaque tissue culture plates (Greiner CellStar) in Dulbecco’s Modified Eagle Medium: Nutrient Mixture F-12 (DMEM/F-12) without phenol red and 1 g/l glucose and supplemented with 5% stripped fetal bovine serum, 100 units/ml of penicillin, 100 µg/ml of streptomycin (test medium). Chemicals to be tested were added 24h later, and cells were incubated at 37°C for 16h. Experiments were performed in quadruplicates. At the end of the incubation period, culture medium was replaced with test medium containing 0.3 mM luciferin solution. Luciferase activity was measured for 2s in intact living cells after 10 min stabilization using a Micro Beta Wallac luminometer (PerkinElmer). EC50 values were calculated using GraphPad Prism (GraphPad Software Inc).
(§4) Chemicals tested for agonism on FXR, LXRs, CAR (+ APYLT), PXR, and antagonism on CAR and RORγ were tested alone, without addition of any other ligand.
(§5) In the transactivation assay, each compound was tested at various concentrations in three independent experiments at least. For each experiment, tests were performed in quadruplicates for each concentration, and data are expressed by means values with standard deviations. Individual agonist dose–response curves, in the absence and presence of antagonist, were fitted using the sigmoid dose-response function of a graphics and statistics software program (GraphPad Prism, version 5.0). EC50 (effective concentration for half-maximal luciferase activity) and IC50 (half-maximal inhibitory concentration) values were calculated from equations used to fit the data in this graphic software. Transactivation data are presented as EC50 and IC50 values for each compound tested. To analyze significances, we compared individual compound treatments with controls using one-way analysis of variance (ANOVA) with the help of GraphPad Prism software.

human LXRα [1] = biological target: T2, human LXRα (Homo sapiens, UniProt Q13133); assay: HG5LN GAL4-LXRα reporter cell line, antagonist mode in presence of T0901317; settings: NE = No effect; for IC50: read-out: LXRα (T0901317 20 nM) IC50, in presence of T0901317 20 nM
T2 construct: LXRα (A187-E447); expressed in transfected cells; host or cells: HG5LN (HeLa cells carrying the (GAL4RE)5-βGlob-Luc-SVNeo reporter)
T2 sequence (Q13133 187-447): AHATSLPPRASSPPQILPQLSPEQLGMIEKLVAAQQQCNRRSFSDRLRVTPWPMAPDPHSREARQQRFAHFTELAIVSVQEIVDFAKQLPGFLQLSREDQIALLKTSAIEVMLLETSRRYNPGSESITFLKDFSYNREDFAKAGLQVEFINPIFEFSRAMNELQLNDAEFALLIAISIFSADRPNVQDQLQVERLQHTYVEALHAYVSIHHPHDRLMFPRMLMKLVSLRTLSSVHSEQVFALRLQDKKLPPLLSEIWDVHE
Description: as §1, §2, §3, §4, §5

human RORγ = biological target: T3, human RORγ (Homo sapiens, UniProt P51449); assay: HG5LN GAL4-RORγ reporter cell line, agonist mode in presence of SR2211; settings: read-out: RORγ (SR2211 1 mM) EC50; in presence of SR2211 1 mM; NE = No effect
T3 construct: RORγ (S97-K518); expressed in transfected cells; host or cells: HG5LN (HeLa cells carrying the (GAL4RE)5-βGlob-Luc-SVNeo reporter)
T3 sequence (P51449 97-518): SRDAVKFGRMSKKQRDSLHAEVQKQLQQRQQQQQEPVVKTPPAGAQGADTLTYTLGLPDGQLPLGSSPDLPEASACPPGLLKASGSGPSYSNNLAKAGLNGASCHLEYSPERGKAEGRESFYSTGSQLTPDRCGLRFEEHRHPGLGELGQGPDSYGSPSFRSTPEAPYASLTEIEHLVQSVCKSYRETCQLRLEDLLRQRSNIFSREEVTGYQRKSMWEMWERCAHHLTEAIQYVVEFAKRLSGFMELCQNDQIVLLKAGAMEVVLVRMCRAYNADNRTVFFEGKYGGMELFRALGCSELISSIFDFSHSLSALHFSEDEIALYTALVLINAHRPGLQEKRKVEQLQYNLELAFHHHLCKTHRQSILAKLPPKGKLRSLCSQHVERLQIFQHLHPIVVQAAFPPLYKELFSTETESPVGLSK
Description: as §1, §2, §3, §4, §5

human LXRα [2] = biological target: T2, human LXRα; assay: HG5LN GAL4-LXRα reporter cell line, agonist mode; settings: NE = No effect; for EC50: HG5LN GAL4-LXRα cells, tested alone, read-out: LXRα EC50
Description: as §1, §2, §3, §4, §5

[3] = tested alone, constitutive activity = 100%, at 10^-5 M (10^-6 M *, 3 10^-6 M **), NE = No effect

CCOC(=O)Nc1ccc2c(c1)N(C(=O)CN(CC)CC)c1ccccc1CC2 [CINPA1]
IC50 (human CAR WT; tested alone, NE = No effect): 0.251 ± 0.015 µM | CAR WT % min act (human CAR WT; [3]): 19% | IC50 (human LXRα [1]): > 10 µM | EC50 (human RORγ): > 10 µM | EC50 (human LXRα [2]): > 10 µM

Clc1ccc(-c2nc3sccn3c2/C=N/OCc2ccc(Cl)c(Cl)c2)cc1 [CITCO]
IC50 (human LXRα [1]): > 10 µM | EC50 (human RORγ): > 10 µM | EC50 (human LXRα [2]): > 10 µM

Clc1ccccc1C(c1ccccc1)(c1ccccc1)n1ccnc1 [Clotrimazole, clotrimazole]
remaining activity at 10 µM (human CAR WT; [3]): 64% | IC50 (human LXRα [1]): > 10 µM | EC50 (human RORγ): > 10 µM | EC50 (human LXRα [2]): > 10 µM

COc1cccc(Cn2cc(C(=O)Nc3ccc(C)c(S(=O)(=O)N4CCOCC4)c3)c(-c3ccc(C)cc3)n2)c1 [DY268]
IC50 (human CAR WT; tested alone, NE = No effect): > 10 µM | IC50 (human LXRα [1]): > 10 µM | EC50 (human RORγ): > 10 µM | EC50 (human LXRα [2]): > 10 µM

CC(C)(C)c1nc(-c2cccc(NS(=O)(=O)c3c(F)cccc3F)c2F)c(-c2ccnc(N)n2)s1 [Dabrafenib]
IC50 (human CAR WT; tested alone, NE = No effect): > 10 µM | IC50 (human LXRα [1]): > 10 µM | EC50 (human RORγ): > 10 µM | EC50 (human LXRα [2]): > 10 µM

COC(=O)/C=C/c1cccc(N(Cc2ccc(-c3ccc(N(C)C)cc3)cc2)C(=O)C2CCCCC2)c1 [Feraxamine]
IC50 (human CAR WT; tested alone, NE = No effect): > 10 µM | IC50 (human LXRα [1]): > 10 µM | EC50 (human RORγ): > 10 µM | EC50 (human LXRα [2]): > 10 µM

Cc1cc(C)c(S(=O)(=O)N(Cc2ccc(-c3cccc(S(C)(=O)=O)c3)cc2)Cc2ccc(C(F)(F)F)o2)c(C)c1 [GSK2033]
remaining activity at 10 µM (human CAR WT): 21% | IC50 (human CAR WT; tested alone, NE = No effect): 0.556 ± 0.024 µM | LXRα (T0901317 20 nM) % min act (human LXRα [1]; in presence of T0901317 20 nM (80% of maximal activity), at 10^-5 M (10^-6 M *, 3 10^-6 M **)): 2% | EC50 (human RORγ): > 10 µM

O=C(O)Cc1cccc(OCCCN(Cc2cccc(C(F)(F)F)c2Cl)CC(c2ccccc2)c2ccccc2)c1 [GW3965]
IC50 (human CAR WT; tested alone, NE = No effect): > 10 µM | EC50 (human RORγ): > 10 µM | EC50 (human LXRα [2]): 0.176 ± 0.048 µM | LXRα % max act (human LXRα [2]; maximal luciferase activity at 10^-5 M (10^-6 M for * and 3 10^-6 M for ** compounds), 100% = 1 µM T0901317, DMSO 8 ± 1): 98%

CC(C)c1onc(-c2c(Cl)cccc2Cl)c1COc1ccc(/C=C/c2cccc(C(=O)O)c2)c(Cl)c1 [GW4064]
IC50 (human CAR WT; tested alone, NE = No effect): > 10 µM | IC50 (human LXRα [1]): > 10 µM | EC50 (human RORγ): > 10 µM | EC50 (human LXRα [2]): > 10 µM
